Assay results published in US20070027143A1, “Novel substituted 2,3-benzodiazepine derivatives” (priority 2003, published 2007).

First: Cc1nnc(N2N=C(c3ccc(N)c(C)c3)c3cc4c(cc3CC2C)OCO4)s1 (racemic) [Example 95, (±)-5-(4-Amino-3-methylphenyl)-8-methyl-7-(5-methyl-1,3,4-thiadiazol-2-yl)-8,9-dihydro-7H-1,3-dioxolo-[4,5-h][2,3]benzodiazepine]
Second: Cc1cc(C2=NN(c3nnc(C(C)C)s3)[C@H](C)Cc3cc4c(cc32)OCO4)ccc1N [Example 169, (R)-5-(4-Amino-3-methylphenyl)-7-(5-isopropyl-1,3,4-thiadiazol-2-yl)-8-methyl-8,9-dihydro-7H-1,3-dioxolo[4,5-h][2,3]benzodiazepine]
The melting point of the first is higher: 140 to 144 °C for the first, 134 to 140 °C for the second.

First: Cc1cc(N2N=C(c3ccc(N)cc3)c3cc4c(cc3CC2C)OCO4)on1 (racemic) [Example 185, (±)-5-(4-Aminophenyl)-8-methyl-7-(3-methyl-isoxazol-5-yl)-8,9-dihydro-7H-1,3-dioxolo-[4,5-h][2,3]benzodiazepine]
Second: Cc1nc(N2N=C(c3ccc(N)cc3)c3cc4c(cc3CC2C)OCO4)sc1C (racemic) [Example 65, (±)-5-(4-Aminophenyl)-8-methyl-7-(4,5-dimethyl-thiazol-2-yl)-8,9-dihydro-7H-1,3-dioxolo-[4,5-h][2,3]benzodiazepine]
The melting point of the first is lower: 100 to 103 °C for the first, 240 to 242 °C for the second.

First: CC1Cc2cc3c(cc2C(c2ccc(N)cc2)=NN1c1nncs1)OCO3 (racemic) (hydrate or solvate) [Example 83, (±)-5-(4-Aminophenyl)-8-methyl-7-(1,3,4-thiadiazol-2-yl)-8,9-dihydro-7H-1,3-dioxolo-[4,5-h][2,3]benzodiazepine]
Second: CC1Cc2cc3c(cc2C(c2ccc(N)cc2)=NN1c1nccs1)OCO3 (racemic) [Example 60, (±)-5-(4-Aminophenyl)-8-methyl-7-(2-thiazolyl)-8,9-dihydro-7H-1,3-dioxolo[4,5-h][2,3]benzodiazepine]
The melting point of the first is higher: 192 to 194 °C for the first, 187 to 190 °C for the second.

Compared with `CC1Cc2ccc(Cl)cc2C(c2ccc(N)cc2)=NN1c1nncs1` (racemic) [Example 93, (±)-1-(4-Aminophenyl)-8-chloro-4-methyl-3-(1,3,4-thiadiazol-2-yl)-4,5-dihydro-3H-[2,3]benzodiazepine], `COc1ccc2c(c1)C(c1ccc(N)cc1)=NN(c1nnc(C)s1)C(C)C2` (racemic) [Example 98, (±)-1-(4-Aminophenyl)-4-methyl-3-(5-methyl-1,3,4-thiadiazol-2-yl)-8-methoxy-4,5-dihydro-3H-[2,3]benzodiazepine] is higher in melting point: 125 to 128 °C for the first, 180 to 184 °C for the second.

First: CCOC(=O)c1nnc(N2N=C(c3ccc([N+](=O)[O-])c(C)c3)c3cc4c(cc3C[C@H]2C)OCO4)s1 [Example 144, (R)-7-(5-Ethoxycarbonyl-1,3,4-thiadiazol-2-yl)-8-methyl-5-(3-methyl-4-nitrophenyl)-8,9-dihydro-7H-1,3-dioxolo[4,5-h][2,3]benzodiazepine]
Second: CCOC(=O)c1nnc(N2N=C(c3ccc(N)c(C)c3)c3cc4c(cc3C[C@H]2C)OCO4)s1 [Example 175, (R)-5-(4-Amino-3-methylphenyl)-7-(5-ethoxycarbonyl-1,3,4-thiadiazol-2-yl)-8-methyl-8,9-dihydro-7H-1,3-dioxolo[4,5-h][2,3]benzodiazepine]
The melting point of the first is lower: 115 to 118 °C for the first, 135 to 140 °C for the second.

First: C/C=C/c1nnc(N2N=C(c3ccc([N+](=O)[O-])c(C)c3)c3cc4c(cc3C[C@H]2C)OCO4)s1 [Example 146, (R)-8-Methyl-5-(3-methyl-4-nitrophenyl)-7-{5-[1-(1E)-propen-1-yl]-1,3,4-thiadiazol-2-yl}-8,9-dihydro-7H-1,3-dioxolo[4,5-h][2,3]benzodiazepine]
Second: CSCc1nnc(N2N=C(c3ccc([N+](=O)[O-])c(C)c3)c3cc4c(cc3C[C@H]2C)OCO4)s1 [Example 143, (R)-8-Methyl-5-(3-methyl-4-nitrophenyl)-7-(5-methylthiomethyl-1,3,4-thiadiazol-2-yl)-8,9-dihydro-7H-1,3-dioxolo[4,5-h][2,3]benzodiazepine]
The melting point of the first is higher: 232 to 237 °C for the first, 132 to 134 °C for the second.

First: CC1=NC(N2N=C(c3ccc(N)cc3)c3cc4c(cc3CC2C)OCO4)NN1 (racemic) [Example 114, (±)-5-(4-Aminophenyl)-8-methyl-7-(5-methyl-1H(2H)-1,2,4-triazol-3-yl)-8,9-dihydro-7H-1,3-dioxolo-[4,5-h][2,3]benzodiazepine]
Second: CC1Cc2cc3c(cc2C(c2ccc(N)cc2)=NN1C1N=CNN1)OCO3 (racemic) [Example 113, (±)-5-(4-Aminophenyl)-8-methyl-7-(1H(2H)1,2,4-triazol-3-yl)-8,9-dihydro-7H-1,3-dioxolo-[4,5-h][2,3]benzodiazepine]
The melting point of the first is lower: 166 to 169 °C for the first, 178 to 181 °C for the second.

First: CC(=O)Nc1ccc(C2=NN(c3nnc(C)s3)[C@H](C)Cc3cc4c(cc32)OCO4)cc1 [Example 130, (R)-5-(4-Acetylaminophenyl)-8-methyl-7-(5-methyl-1,3,4-thiadiazol-2-yl)-8,9-dihydro-7H-1,3-dioxolo-[4,5-h][2,3]benzodiazepine]
Second: CC(=O)Nc1ccc(C2=NN(c3ncccn3)C(C)Cc3cc4c(cc32)OCO4)cc1 (racemic) [Example 128, (±)-5-(4-Acetylaminophenyl)-8-methyl-7-(2-pyrimidinyl)-8,9-dihydro-7H-1,3-dioxolo-[4,5-h][2,3]benzodiazepine]
The melting point of the first is higher: 276 to 277 °C for the first, 162 to 163 °C for the second.

First: Cc1nnc(N2N=C(c3ccc(N)c(C)c3)c3cc4c(cc3C[C@H]2C)OCO4)o1 [Example 181, (R)-5-(4-Amino-3-methylphenyl)-8-methyl-7-(5-methyl-1,3,4-oxadiazol-2-yl)-8,9-dihydro-7H-1,3-dioxolo[4,5-h][2,3]benzodiazepine]
Second: CSCc1nnc(N2N=C(c3ccc(N)c(C)c3)c3cc4c(cc3C[C@H]2C)OCO4)s1 [Example 174, (R)-5-(4-Amino-3-methylphenyl)-8-methyl-7-(5-methylthiomethyl-1,3,4-thiadiazol-2-yl)-8,9-dihydro-7H-1,3-dioxolo[4,5-h][2,3]benzodiazepine]
The melting point of the first is lower: 140 to 145 °C for the first, 177 to 180 °C for the second.

First: Cc1csc(N2N=C(c3ccc(N)cc3)c3cc(Cl)c(Cl)cc3CC2C)n1 (racemic) [Example 81, (±)-1-(4-Aminophenyl)-7,8-dichloro-3-(4-methyl-thiazol-2-yl)-4-methyl-4,5-dihydro-3H-[2,3]benzodiazepine]
Second: CC1Cc2cc3c(cc2C(c2ccc(N)cc2)=NN1c1nc(-c2ccccc2)cs1)OCO3 (racemic) [Example 66, (±)-5-(4-Aminophenyl)-7-(4-phenyl-thiazol-2-yl)-8-methyl-8,9-dihydro-7H-1,3-dioxolo-[4,5-h][2,3]benzodiazepine]
The melting point of the first is lower: 182 to 184 °C for the first, 221 to 223 °C for the second.

First: CC1Cc2cc3c(cc2C(c2ccc(N)cc2)=NN1C1=NC(=O)C(C)(C)S1)OCO3 (racemic) [Example 193, (±)-5-(4-Aminophenyl)-8-methyl-7-(5,5-dimethyl-4-oxo-4,5-dihydrothiazol-2-yl)-8,9-dihydro-7H-1,3-dioxolo-[4,5-h][2,3]benzodiazepine]
Second: CC1SC(N2N=C(c3ccc(N)cc3)c3cc4c(cc3CC2C)OCO4)=NC1=O (racemic) [Example 72, (±)-5-(4-Aminophenyl)-7-(4,5-dihydro-5-methyl-4-oxo-thiazol-2-yl)-8-methyl-8,9-dihydro-7H-1,3-dioxolo-[4,5-h][2,3]benzodiazepine]
The melting point of the first is lower: 124 to 130 °C for the first, 200 to 204 °C for the second.

First: C[C@@H]1Cc2cc3c(cc2C(c2ccc(N)cc2)=NN1c1cnns1)OCO3 [Example 186, (R)-5-(4-Aminophenyl)-8-methyl-7-(1,2,3-thiadiazol-5-yl)-8,9-dihydro-7H-1,3-dioxolo-[4,5-h][2,3]benzodiazepine]
Second: CC1Cc2cc3c(cc2C(c2ccc(N)cc2)=NN1C1=NCCS1)OCO3 (racemic) [Example 68, (±)-5-(4-Aminophenyl)-7-(4,5-dihydro-thiazol-2-yl)-8-methyl-8,9-dihydro-7H-1,3-dioxolo-[4,5-h][2,3]benzodiazepine]
The melting point of the first is higher: 220 to 221 °C for the first, 145 to 150 °C for the second.

First: Cc1cc(C2=NN(c3nnc(CC#N)s3)[C@H](C)Cc3cc4c(cc32)OCO4)ccc1[N+](=O)[O-] [Example 142, (R)-7-(5-Cyanomethyl-1,3,4-thiadiazol-2-yl)-8-methyl-5-(3-methyl-4-nitrophenyl)-8,9-dihydro-7H-1,3-dioxolo[4,5-h][2,3]benzodiazepine]
Second: CC1Cc2cc3c(cc2C(c2ccc(N)cc2)=NN1c1nnc(C2CC2)s1)OCO3 (racemic) [Example 87, (±)-5-(4-Aminophenyl)-7-(5-cyclopropyl-1,3,4-thiadiazol-2-yl)-8-methyl-8,9-dihydro-7H-1,3-dioxolo[4,5-h][2,3]benzodiazepine]
The melting point of the first is lower: 118 to 122 °C for the first, 145 to 148 °C for the second.

First: CC1Cc2cc3c(cc2C(c2ccc(N)cc2)=NN1c1n[nH]c(=O)s1)OCO3 (racemic) [Example 101, (±)-5-(4-Aminophenyl)-8-methyl-7-(5-oxo-4,5-dihydro-1,3,4-thiadiazol-2-yl)-8,9-dihydro-7H-1,3-dioxolo-[4,5-h][2,3]benzodiazepine]
Second: Cc1nc(N2N=C(c3ccc(N)cc3)c3cc4c(cc3CC2C)OCO4)n(C)n1 (racemic) [Example 117, (±)-5-(4-Aminophenyl)-8-methyl-7-(2,5-dimethyl-2H-1,2,4-triazol-3-yl)-8,9-dihydro-7H-1,3-dioxolo-[4,5-h][2,3]benzodiazepine]
The melting point of the first is higher: 263 to 264 °C for the first, 185 to 187 °C for the second.

Compared with `Cc1cc(C2=NN(C3=NCCS3)[C@H](C)Cc3cc4c(cc32)OCO4)ccc1N` [Example 163, (R)-5-(4-Amino-3-methylphenyl)-8-methyl-7-(4,5-dihydro-thiazol-2-yl)-8,9-dihydro-7H-1,3-dioxolo-[4,5-h][2,3]benzodiazepine], `Nc1ccc(C2=NN(c3nccs3)CCc3cc4c(cc32)OCO4)cc1` [Example 74, 5-(4-Aminophenyl)-7-(2-thiazolyl)-8,9-dihydro-7H-1,3-dioxolo[4,5-h][2,3]benzodiazepine] is higher in melting point: 125 to 128 °C for the first, 200 to 204 °C for the second.

For `CC1Cc2cc3c(cc2C(c2ccc(N)cc2)=NN1c1nc(C(=O)O)cs1)OCO3` (racemic) [Example 106, (±)-5-(4-Aminophenyl)-7-(4-carboxy-thiazol-2-yl)-8-methyl-8,9-dihydro-7H-1,3-dioxolo-[4,5-h][2,3]benzodiazepine], the melting point was > 260 °C (dec.).
